Measured values from PubChem BioAssay (NCI).
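Interpolation was linear, between the two tested concentrations surrounding the appropriate level; five concentrations were tested over 48 hours in 96-well plates. TGI is the concentration that stops growth completely.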

Tests used:
Test in all cases: NCI-60 cell line screen, 48 h
[1] = tested on: SK-MEL-28 melanoma
[2] = tested on: MALME-3M melanoma
[3] = tested on: HCC-2998 colon
[4] = tested on: SK-MEL-2 melanoma
[5] = tested on: KM12 colon
[6] = tested on: NCI/ADR-RES ovarian
[7] = tested on: IGROV1 ovarian
[8] = tested on: RXF 393 renal
[9] = tested on: SF-295 CNS
[10] = tested on: A549 NSCLC
[11] = tested on: SN12C renal
[12] = tested on: COLO 205 colon
[13] = tested on: EKVX NSCLC
[14] = tested on: CAKI-1 renal
[15] = tested on: UO-31 renal
[16] = tested on: SNB-75 CNS
[17] = tested on: HCT-15 colon
[18] = tested on: SF-268 CNS
[19] = tested on: UACC-62 melanoma
[20] = tested on: NCI-H522 lung
[21] = tested on: SK-MEL-5 melanoma
[22] = tested on: CCRF-CEM leukemia
[23] = tested on: MCF7 breast
[24] = tested on: SNB-19 CNS
[25] = tested on: HL-60(TB) leukemia
[26] = tested on: HS 578T breast
[27] = tested on: OVCAR-5 ovarian
[28] = tested on: SR leukemia
[29] = tested on: NCI-H460 lung
[30] = tested on: K-562 leukemia
[31] = tested on: RPMI-8226 leukemia
[32] = tested on: A498 renal
[33] = tested on: UACC-257 melanoma
[34] = tested on: T-47D breast
[35] = tested on: DU-145 prostate
[36] = tested on: OVCAR-4 ovarian
[37] = tested on: U251 CNS
[38] = tested on: MDA-MB-435
[39] = tested on: MDA-N
[40] = tested on: SW-620 colon
[41] = tested on: LOX IMVI melanoma
[42] = tested on: OVCAR-3 ovarian
[43] = tested on: NCI-H23 lung
[44] = tested on: M14 melanoma
[45] = tested on: HT29 colon
[46] = tested on: MDA-MB-231 breast
[47] = tested on: BT-549 breast
[48] = tested on: HOP-62 NSCLC
[49] = tested on: HCT-116 colon
[50] = tested on: NCI-H226 lung
[51] = tested on: PC-3 prostate
[52] = tested on: SF-539 CNS
[53] = tested on: SK-OV-3 ovarian
[54] = tested on: TK-10 renal
[55] = tested on: HOP-92 NSCLC
[56] = tested on: OVCAR-8 ovarian
[57] = tested on: 786-0 renal
[58] = tested on: MOLT-4 leukemia
[59] = tested on: ACHN renal

Measured: TGI

NC(CSS(=O)(=O)c1ccccc1)C(=O)O (centres undefined)
> 10 µM: all assays above
